In ChEMBL document CHEMBL1143735, “Synthesis, anti-HIV activity, and resistance profile of thymidine phosphonomethoxy nucleosides and their bis-isopropyloxymethylcarbonyl (bisPOC) prodrugs” (Bioorg Med Chem, 2007):

Columns and labels:
[1] = test system: Human immunodeficiency virus 1; experiment: Antiviral activity against HIV with reverse transcriptase M184V mutation assessed as reduction of potency relative to wild type; format: functional
[2] = Cytotoxicity against MT2 cells; format: cell-based; details: human
[3] = test system: Human immunodeficiency virus 1; experiment: Antiviral activity against HIV1 with reverse transcriptase 6TAM mutation assessed as reduction of potency relative to wild type; format: functional
[4] = test system: Human immunodeficiency virus 1; experiment: Inhibition of virus-induced cytopathic effect in wild type HIV 3a infected MT2 cells after 5 days; format: functional, organism-based; details: Human immunodeficiency virus 1, 3a, MT2, 120 h
[5] = biological target: Human immunodeficiency virus type 1 reverse transcriptase (Human immunodeficiency virus 1, UniProt Q72547); experiment: Inhibition of HIV1 reverse transcriptase
[6] = test system: Human immunodeficiency virus 1; experiment: Antiviral activity against HIV1 with reverse transcriptase K65R mutation assessed as reduction of potency relative to wild type; format: functional

| Structure (SMILES) | Fold change [1] | CC50 [2] [µM] | Fold change [3] | EC50 [4] [µM] | IC50 [5] [nM] | Fold change [6] |
| --- | --- | --- | --- | --- | --- | --- |
| Cc1cn([C@H]2C=C[C@@H](OCP(=O)(O)O)O2)c(=O)[nH]c1=O | 1.1 | > 500 | 13 | 26 | 390 | 5.2 |
| Cc1cn([C@H]2CC[C@@H](OCP(=O)(O)O)O2)c(=O)[nH]c1=O |  | > 500 |  | > 200 | 5400 |  |
| Cc1cn([C@H]2CC[C@@H](OCP(=O)(OCOC(=O)OC(C)C)OCOC(=O)OC(C)C)O2)c(=O)[nH]c1=O |  | > 50 |  | 1.3 |  |  |
| Cc1cn([C@H]2CC[C@@H](OCP(=O)(O)O)O2)c(=O)[nH]c1=O.O=P(O)(O)OP(=O)(O)O |  | > 500 |  | > 200 | 5400 |  |
| Cc1cn([C@H]2C[C@H](N=[N+]=[N-])[C@@H](OCP(=O)(O)O)O2)c(=O)[nH]c1=O |  |  |  | > 200 |  |  |
| Cc1cn([C@H]2C=C[C@@H](OCP(=O)(OCOC(=O)OC(C)C)OCOC(=O)OC(C)C)O2)c(=O)[nH]c1=O |  | 10 |  | 0.91 |  |  |
| Cc1cn([C@H]2CC[C@@H](CO)O2)c(=O)[nH]c1=O |  |  |  | > 200 | 120 |  |
| Cc1cn([C@H]2C=C[C@@H](COP(=O)(O)OP(=O)(O)OP(=O)(O)O)O2)c(=O)[nH]c1=O [STAVUDINE TRIPHOSPHATE] | 1.1 | > 500 | 13 | 26 | 390 | 5.2 |
| Cc1cn([C@H]2C=C[C@@H](CO)O2)c(=O)[nH]c1=O [STAVUDINE] | 1.2 | 286 | 5.5 | 4.8 | 60 | 2.3 |
| C[C@H](Cn1cnc2c(N)ncnc21)OCP(=O)(O)O [TENOFOVIR ANHYDROUS] | 0.7 | > 200 | 8.8 |  | 380 | 4.3 |
| CC(C)OC(=O)OCOP(=O)(CO[C@H](C)Cn1cnc2c(N)ncnc21)OCOC(=O)OC(C)C.O=C(O)/C=C/C(=O)O [TENOFOVIR DISOPROXIL FUMARATE] |  | > 50 | 7.7 | 0.015 |  | 3.1 |
| Cc1cn([C@H]2C[C@H](N=[N+]=[N-])[C@@H](CO)O2)c(=O)[nH]c1=O [ZIDOVUDINE] |  | > 200 |  |  |  |  |
